According to US10688142B2, “Methods of treatment using a lipid extract of Passiflora seeds concentrated in its unsaponifiable fraction” (Laboratoires Expanscience, priority 2013, dated 2020):
Marks after values point to notes of the source that are not given here.

Columns and labels:
Type in all cases: cell-based
[1] = system: human mature adipocytes; assay: Lipolysis: release of glycerol by encapsulated mature adipocytes; conditions: 10 μM forskoline, 4 hours
Method: Human white adipose tissue carries out a fundamental metabolic function by providing the other tissues in the body with energy molecules in the form of fatty acids released by the adipocyte lipolysis process: adipocytes mobilise energy reserves by hydrolysing stored triglycerides to fatty acids and glycerol; the fatty acids thus released into the bloodstream can be used by other tissues for energy purposes. The effect of the Passiflora concentrate on adipocyte lipolysis was evaluated by assay of glycerol released during hydrolysis of the triglycerides stored in human mature adipocytes cultured in 3 dimensions.
Mature adipocytes, derived from biopsies of subcutaneous adipose tissue taken from five donors (normal-weight or overweight) were isolated and encapsulated in peptide gel allowing their survival and biological functionality in culture. The encapsulated mature adipocytes were incubated in the presence of 0.001% or 0.005% Passiflora concentrate, or 10 μM forskoline (standard) for 4 hours.
After incubation, the released glycerol was assayed in the culture medium using an assay kit (Randox), the values obtained were normalised with the amount of DNA evaluated with a kit (Invitrogen).

[2] = system: elastin; assay: Expression of dermal matrix components in normal human fibroblasts, real-time quantitative RT-PCR; conditions: TGFβ1 at 5 ng/ml, 24 hours
Method: (§1) Normal human dermal fibroblasts were incubated for 24 hours in 1 FCS culture medium in the presence of 0.005% and 0.05% Passiflora concentrate or TGFβ1 at 5 ng/ml (standard). After incubation, the total RNAs were extracted, assayed and retro-transcribed. The gene expression of collagen I and elastin were analysed by real-time quantitative RT-PCR.

[3] = system: collagen I; assay: as above; conditions: TGFβ1 at 5 ng/ml, 24 hours
Method: as §1

Compound: C=C[C@@]1(C)CC(=O)[C@]2(O)[C@@]3(C)[C@@H](O)CCC(C)(C)[C@@H]3[C@H](O)[C@H](OC(C)=O)[C@@]2(C)O1 [Forskoline, forskoline]
- Stimulation (%) of glycerol release [1]: +660% **
- Release of glycerol ([1]; mean of 5 donors, control 1.00): 6.60 Arbitrary unit

Compound: TGFβ1: TGFβ1 at 5 ng/ml (standard) in the dermal matrix gene expression test
- Elastin gene expression, percentage increase relative to non-treated control [2]: +40% *
- Elastin (Relative Quantity) ([2]; control = 1.00): 1.40
- Collagen I gene expression, percentage increase relative to non-treated control [3]: +30% ns^
- Collagen I (Relative Quantity) ([3]; control = 1.00): 1.30
